Source: patent US20110236330A1, “Skin Whitening” (priority 2008, published 2011)

What was measured:
[1] = tested on: Melanocytes (B16 cell line); test: Melanogenesis inhibition assay (melanin level and cellular protein level); assay type: cell-based; conditions: 3 days incubation; for Protein level: cellular proteins (Bradford) as number of viable cells; for Melanin level: optical density at 475 nm
Method: Melanocytes (B16 cell line) are inoculated in standard medium of cell culture with fetal calf serum (FCS). After an incubation of 3 days at 37° C. and CO2=5%, growth medium is exchanged for standard medium with a range of concentrations for each compound to be tested and a control without ingredient. After an incubation of 3 days, the level of melanin is measured by recording the optical density at 475 nm. After washing the cells by a balanced salt, and homogenization in a solution of 0.1 M NaOH, the number of viable cells is determined by the level of cellular proteins (Bradford's method).
The results are expressed in % against control (cell culture medium without compound) as a mean on 2 to 3 assays, each in triplicate.

[2] = Stability assay (visual coloration of solutions on storage); assay type: physicochemical; design: key to Coloration: —: no coloration; +: moderate coloration; ++: strong coloration; conditions: for Coloration: room temperature, aqueous buffer:ethanol 1:1, away from day light; for Stability in protic solution: up to 120 days of incubation
Method: 5-hydroxy-L-tryptophan, 6-fluoro-DL-tryptophan, 4-methyl-DL-tryptophan were dissolved at 1 or 10 mg/ml in a solution aqueous buffer at ph 5.5 and pH 7 (citric acid 0.1 M, Na2HPO4 0.2 M):ethanol 1:1 vol:vol. The solutions are kept away from day light and stored at room temperature. After 30, 60 and 120 days, the coloration of the solutions are visually assessed.

Compound | Coloration ([2]; pH 5.5, 30 days) | Coloration ([2]; pH 5.5, 60 days) | Coloration ([2]; pH 5.5, 120 days) | Coloration ([2]; pH 7.0, 30 days) | Coloration ([2]; pH 7.0, 60 days) | Coloration ([2]; pH 7.0, 120 days) | Stability in protic solution ([2]; pH 5.5 and 7) | Coloration of the solution (in words) ([2]; at 30 days, protic solution, pH 5.5 and 7) | Protein level ([1]; dose 0.001 % (w/v)) | Melanin level ([1]; dose 0.001 % (w/v)) | Protein level ([1]; dose 0.003 % (w/v)) | Melanin level ([1]; dose 0.003 % (w/v)) | Protein level ([1]; dose 0.01 % (w/v)) | Melanin level ([1]; dose 0.01 % (w/v))
COc1ccc2[nH]cc(CC(N)C(=O)O)c2c1 (racemic) [5-Methoxy-DL-Tryptophan] |  |  |  |  |  |  |  |  | 96 %/control | 90 %/control | 92 %/control | 65 %/control |  | 
Cc1ccc2c(CC(N)C(=O)O)c[nH]c2c1 (racemic) [6-Methyl-DL-Tryptophan] |  |  |  |  |  |  |  |  |  |  | 102 %/control | 81 %/control | 100 %/control | 39 %/control

Further lines, with some results ahead:

Coloration ([2]; pH 5.5, 30 days) | Coloration ([2]; pH 5.5, 60 days) | Coloration ([2]; pH 5.5, 120 days) | Coloration ([2]; pH 7.0, 30 days) | Coloration ([2]; pH 7.0, 60 days) | Coloration ([2]; pH 7.0, 120 days) | Stability in protic solution ([2]; pH 5.5 and 7) | Coloration of the solution (in words) ([2]; at 30 days, protic solution, pH 5.5 and 7) | Compound | Protein level ([1]; dose 0.001 % (w/v)) | Melanin level ([1]; dose 0.001 % (w/v)) | Protein level ([1]; dose 0.003 % (w/v)) | Melanin level ([1]; dose 0.003 % (w/v)) | Protein level ([1]; dose 0.01 % (w/v)) | Melanin level ([1]; dose 0.01 % (w/v))
— | — | — | — | — | — | high stability |  | Cc1cccc2[nH]cc(CC(N)C(=O)O)c12 (racemic) [4-Methyl-DL-Tryptophan] | 97 %/control | 56 %/control | 100 %/control | 33 %/control |  | 
— | — | — | — | — | — | high stability |  | NC(Cc1c[nH]c2cc(F)ccc12)C(=O)O (racemic) [6-Fluoro-DL-Tryptophan] | 106 %/control | 44 %/control | 108 %/control | 10 %/control |  | 
++ | ++ | ++ | ++ | ++ | ++ |  | visible dark-brown coloration | N[C@@H](Cc1c[nH]c2ccc(O)cc12)C(=O)O [5-hydroxy-L-tryptophan, 5-Hydroxy-L-Tryptophan, reference compound] |  |  |  |  |  | 
